System: GSDMD cleavage in Huh7 hepatocytes
Experiment: LPS-induced pyroptosis (GSDMD cleavage) in Huh7 hepatocytes pre-treated with tunicamycin and/or very low-dose LPS
Assay type: cell-based, Human
Settings: tunicamycin and/or LPS 1 μg/ml for 24 hours, then LPS 30 μg/ml
Experimental: FIG. 13—LPS-dependent pyroptosis in hepatocytes and priming by ER stress.
All measurements were performed in triplicate.
In addition to hepatocyte ER stress, increased levels of circulating endotoxin are detected in advanced liver disease. Therefore, to determine the importance of hepatocyte ER stress and low-level endotoxin exposure as mediators of upregulation of the caspase-4/11 pathway, Huh7 hepatocytes were pre-treated with the ER stress inducer, tunicamycin and/or very low-dose LPS (1 μg/ml) for 24 hours, prior to the LPS ‘hit’ (30 μg/ml) (FIG. 13). […] Importantly, in these experiments hepatocyte pyroptosis was independent of the TLR4 pathway, as GSDMD cleavage was not inhibited by the TLR4 antagonist TAK-242. Caspase-11 deficient mice are protected from hepatic and extra-hepatic organ injury in ACLF Casp11^−/− mice are deficient in the caspase-11 pathway, but the caspase-1 pathway remains intact. Casp11^−/− mice develop a similar level of advanced fibrosis/cirrhosis compared to wildtype (wt) after treatment with 20 doses of CCl4 (FIG. 14A).

CCOC(=O)C1=CCCC[C@H]1S(=O)(=O)Nc1ccc(F)cc1Cl [TAK-242]
GSDMD cleavage (inhibition by TLR4 antagonist): not inhibited

From patent US11752196B2, “Treatment of pyroptosis” (priority 2018, dated 2023)
